According to patent US6017919A, “Compounds and pharmaceutical use thereof” (Japan Tobacco Inc., priority 1996, dated 2000):

Tested on: anti-thy-1 antibody-induced nephritis
Test: Anti-thy-1 antibody-induced nephritis model
Format: in vivo, male Wistar rats
Conditions: for Nuclear cell count in nephritic glomerulus / Urinary protein: oral, once a day until day 6, rats
Description: [IV] Anti-thy-1 antlbody-induced nephritis model (in vivo)
The test compound (prednisolone, compound of Example 7-35) was orally administered to male Wistar rats (6 weeks old), and one hour later, an anti-thy-1 antibody (ox-7, 0.938 mg/ml) was administered at 0.1 ml/rat from the tail vein. The test compound was administered once a day thereafter until day 6. At day 6, the rats were forcibly loaded with 8 ml of tap water and then deprived of water for consecutive 16 hours, during which period urine samples were taken from the rats. At day 7, the rats were killed by exsanguination. The kidney was removed, weighed and fixed with formalin, and tissue samples (PAS stained) were prepared therefrom. Evaluation was done by measuring urinary protein and nuclear cell count in nephritic glomerulus section. The test compound was prepared into a suspension with 0.5% HPMC and administered at 10 ml/kg per dose.
Sham no administration of anti-thy-1 antibody,
loaded with water and orally administered
Control administration of anti-thy-1 antibody,
Prednisolone administration of anti-thy-1 antibody,
Compound of Ex. 7-35 with said test compound

SMILES | Nuclear cell count in nephritic glomerulus (0.1 mg/kg) | Urinary protein (0.1 mg/kg) | suppressive effect on increase in nuclear cell count in nephritic glomerulus (0.1 mg/kg, result in words) | suppressive effect on increase in urinary protein (0.1 mg/kg, result in words) | Nuclear cell count in nephritic glomerulus (3 mg/kg) | Urinary protein (3 mg/kg)
CCCCCOc1ccc2c(c1OCCCCC)CN(CCc1ccc(N)cc1)C2=O.Cl [Example 7-35, 2-[2-(4-aminophenyl)ethyl]-4,5-bispentyloxy-2,3-dihydroisoindol-1-one hydrochloride] | 84.8 ± 1.2 nuclei/glomerulus | 15.2 ± 2.4 mg/16 hr | significant suppressive effect | significant suppressive effect | – | –
C[C@]12C=CC(=O)C=C1CC[C@@H]1[C@@H]2[C@@H](O)C[C@@]2(C)[C@H]1CC[C@]2(O)C(=O)CO [Prednisolone, prednisolone, reference compound] | – | – | – | – | 76.9 ± 0.9 nuclei/glomerulus | 20.9 ± 2.7 mg/16 hr
